“Also recorded” adds a separate entry of the source.
Assays:
diabetic rats [1] = experiment: Brain atrophy in streptozotocin-diabetic rats, insulin infused into brain lateral ventricles; format: in vivo, rat; details: 0.3 U insulin per kg body weight per day into brain lateral ventricles for 10 weeks; D+Insulin vs D+aCSF P<0.02; N=7 rats per group
Protocol: (§1) Adult rats were randomly assigned to treatment groups, some of which were treated with streptozotocin to induce diabetes. Alzet osmotic minipumps (pump rate, 0.5 μl per hour) were connected to catheters that delivered either artificial cerebrospinal fluid (D+aCSF) or 0.3 U insulin per kg body weight per day (D+Insulin) into the brain lateral ventricles of diabetic rats for 10 weeks. Pumps were replaced every two weeks. Brains were removed and the wet weight determined. The brains were homogenized in a buffer, and aliquots were taken to determine dry weight. The water weight was calculated as the difference between brain wet and dry weights. The results are shown in FIGS. 1A-1C, wherein the values are means±SEM (N=7 rats per group). Newman-Keuls posthoc test of means was calculated using CSS Statistica software package.

diabetic rats [2] = experiment: Serum glucose and body weight in the same experiment at 10 weeks; format: in vivo, rat; details: 0.3 U insulin per kg per day intracerebroventricular
Protocol: as §1
In the same experiment described in FIGS. 1A-1C, rats were weighed and tail blood was withdrawn for glucose assay prior to euthanasia at 10 weeks. Values are means±SEM. Newman-Keuls posthoc test of means was calculated using CSS Statistica software package.

patients = details: insulin infusion, glucose levels kept constant in patients; cited from earlier work

## insulin
Diabetic rats [1]
  brain atrophy, loss of brain wet and dry weights: prevented brain atrophy; also recorded: completely normalized brain weight
Diabetic rats [2]; D+Insulin vs D+aCSF P<0.02
  loss of body weight: partially prevented loss of body weights
Diabetic rats [2]; D+Insulin vs D+aCSF nonsignificant
  hyperglycemia (serum glucose levels): no effect on hyperglycemia
patients
  number of different genes whose expression is regulated in a muscle biopsy: over 700

— US20120195959A1, “METHOD FOR TREATING DISEASE OR DISORDER OF ADULT CENTRAL NERVOUS SYSTEM ASSOCIATED WITH TISSUE SHRINKAGE OR ATROPHY BY ADMINISTRATION OF INSULIN” (priority 2005, published 2012)
